Values joined by “and” are separate entries in the source; they are usually repeats but may differ in a detail not shown here. Equal entries are not always repeated.
Tested on: 855422-203-R-J1-PDC complex spheroid viability
Assay: Anticancer human tumor 855422-203-R-J1-PDC patient-derived bladder carcinoma cell line growth inhibition
Conditions: for viability, T/C: stronger effect = lower value
Procedure, shortened: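 Multicellular complex spheroids of tumor cells with human endothelial cells (HUVEC) and mesenchymal stem cells; the LSD1 inhibitor iadademstat was combined with standard-of-care or investigational agents. Top concentration at or near clinical Cmax, half-log dilutions; final DMSO ≤0.25%.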

[1] = curve of first compound, second compound 0.1 µM
[2] = curve of first compound, second compound 0.316 µM
[3] = curve of first compound, second compound 1 µM
[4] = curve of first compound, second compound 3.16 µM
[5] = curve of first compound, second compound 10 µM
[6] = second compound 0.1 µM, first compound 0.0316 µM
[7] = second compound 0.1 µM, first compound 0.1 µM
[8] = second compound 0.1 µM, first compound 0.316 µM
[9] = second compound 0.1 µM, first compound 1 µM
[10] = second compound 0.316 µM, first compound 0.0316 µM
[11] = second compound 0.316 µM, first compound 0.1 µM
[12] = second compound 0.316 µM, first compound 0.316 µM
[13] = second compound 0.316 µM, first compound 1 µM
[14] = second compound 1 µM, first compound 0.0316 µM
[15] = second compound 1 µM, first compound 0.1 µM
[16] = second compound 1 µM, first compound 0.316 µM
[17] = second compound 1 µM, first compound 1 µM
[18] = second compound 3.16 µM, first compound 0.0316 µM
[19] = second compound 3.16 µM, first compound 0.1 µM
[20] = second compound 3.16 µM, first compound 0.316 µM
[21] = second compound 3.16 µM, first compound 1 µM
[22] = second compound 10 µM, first compound 0.0316 µM
[23] = second compound 10 µM, first compound 0.1 µM
[24] = second compound 10 µM, first compound 0.316 µM
[25] = second compound 10 µM, first compound 1 µM
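Further: drug exposure lasted 7 days starting on day 3 after seeding.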
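Wherever viability, T/C is given: luminescence viability as percent of DMSO vehicle wells = 100%.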

CC1COCCN1c1cc(C2(S(C)(=N)=O)CC2)nc(-c2ccnc3[nH]ccc23)n1 (configuration not stated) + NC1CCC(NC2CC2c2ccccc2)CC1
IC50 [1]: 5470 nM
IC50 [2]: 6000 nM
IC50 [3]: 3140 nM
IC50 [4]: 2790 nM
IC50 [5]: 2440 nM
viability, T/C [6]: 98.1%
viability, T/C [7]: 97.4%
viability, T/C [8]: 104%
viability, T/C [9]: 93.1%
viability, T/C (second compound 0.1 µM, first compound 3.16 µM): 57.6%
viability, T/C (second compound 0.1 µM, first compound 10 µM): 41.7%
viability, T/C [10]: 97.4%
viability, T/C [11]: 101%
viability, T/C [12]: 102%
viability, T/C [13]: 92.7%
viability, T/C (second compound 0.316 µM, first compound 3.16 µM): 60.6%
viability, T/C (second compound 0.316 µM, first compound 10 µM): 41.6%
viability, T/C [14]: 91.1%
viability, T/C [15]: 93.1%
viability, T/C [16]: 90.7%
viability, T/C [17]: 87.7%
viability, T/C (second compound 1 µM, first compound 3.16 µM): 49.8%
viability, T/C (second compound 1 µM, first compound 10 µM): 45.7%
viability, T/C [18]: 86.2%
viability, T/C [19]: 87.9%
viability, T/C [20]: 93.1%
viability, T/C [21]: 83.3%
viability, T/C (second compound 3.16 µM, first compound 3.16 µM): 46%
viability, T/C (second compound 3.16 µM, first compound 10 µM): 43.4%
viability, T/C [22]: 86%
viability, T/C [23]: 85.5%
viability, T/C [24]: 89.8%
viability, T/C [25]: 77.8%
viability, T/C (second compound 10 µM, first compound 3.16 µM): 42%
viability, T/C (second compound 10 µM, first compound 10 µM): 39.2%

Nc1ncn(C2CC(O)C(CO)O2)c(=O)n1 (configuration not stated) + NC1CC1c1ccc(-c2cccc(O)c2)cc1
IC50 [1]: > 1000 nM
IC50 [2]: > 1000 nM
IC50 [3]: > 1000 nM
IC50 [4]: > 1000 nM
IC50 [5]: > 1000 nM
viability, T/C (second compound 0.1 µM, first compound 0.00316 µM): 104%
viability, T/C (second compound 0.1 µM, first compound 0.01 µM): 98.2%
viability, T/C [6]: 99.7%
viability, T/C [7]: 106%
viability, T/C [8]: 93.5%
viability, T/C [9]: 92.4%
viability, T/C (second compound 0.316 µM, first compound 0.00316 µM): 104%
viability, T/C (second compound 0.316 µM, first compound 0.01 µM): 95%
viability, T/C [10]: 96.5%
viability, T/C [11]: 91.6%
viability, T/C [12]: 90.3%
viability, T/C [13]: 88.7%
viability, T/C (second compound 1 µM, first compound 0.00316 µM): 84.9%
viability, T/C (second compound 1 µM, first compound 0.01 µM): 88.6%
viability, T/C [14]: 89.2%
viability, T/C [15]: 93.5%
viability, T/C [16]: 91.5%
viability, T/C [17]: 86.7%
viability, T/C (second compound 3.16 µM, first compound 0.00316 µM): 91.6%
viability, T/C (second compound 3.16 µM, first compound 0.01 µM): 83.3%
viability, T/C [18]: 88%
viability, T/C [19]: 86.6%
viability, T/C [20]: 89.5%
viability, T/C [21]: 84.2%
viability, T/C (second compound 10 µM, first compound 0.00316 µM): 74.7%
viability, T/C (second compound 10 µM, first compound 0.01 µM): 76.8%
viability, T/C [22]: 84.2%
viability, T/C [23]: 82%
viability, T/C [24]: 94.8%
viability, T/C [25]: 85.2%

O=C(c1cc(Cc2n[nH]c(=O)c3ccccc23)ccc1F)N1CCN(C(=O)C2CC2)CC1
viability, T/C (compound 0.0316 µM): 88.5% and 98.6%
viability, T/C (compound 0.1 µM): 94.1% and 111%
viability, T/C (compound 0.316 µM): 96% and 110%
viability, T/C (compound 1 µM): 88.8% and 98.8%
viability, T/C (compound 3.16 µM): 86.5% and 91.7%
viability, T/C (compound 10 µM): 63.3% and 76.1%
IC50 (curve of compound): > 10000 nM

NS(=O)(=O)OCC1CC(n2ccc3c(NC4CCc5ccccc54)ncnc32)CC1O (configuration not stated) + NC1CCC(NC2CC2c2ccccc2)CC1
IC50 [1]: 708 nM
IC50 [2]: 765 nM
IC50 [3]: 747 nM
IC50 [4]: 593 nM
IC50 [5]: 469 nM
viability, T/C (second compound 0.1 µM, first compound 0.00949 µM): 102%
viability, T/C (second compound 0.1 µM, first compound 0.03 µM): 102%
viability, T/C (second compound 0.1 µM, first compound 0.0949 µM): 102%
viability, T/C (second compound 0.1 µM, first compound 0.3 µM): 88.6%
viability, T/C (second compound 0.1 µM, first compound 0.949 µM): 36.9%
viability, T/C (second compound 0.1 µM, first compound 3 µM): 14.8%
viability, T/C (second compound 0.316 µM, first compound 0.00949 µM): 100%
viability, T/C (second compound 0.316 µM, first compound 0.03 µM): 98.6%
viability, T/C (second compound 0.316 µM, first compound 0.0949 µM): 76.6%
viability, T/C (second compound 0.316 µM, first compound 0.3 µM): 87.4%
viability, T/C (second compound 0.316 µM, first compound 0.949 µM): 41.5%
viability, T/C (second compound 0.316 µM, first compound 3 µM): 13.9%
viability, T/C (second compound 1 µM, first compound 0.00949 µM): 105%
viability, T/C (second compound 1 µM, first compound 0.03 µM): 108%
viability, T/C (second compound 1 µM, first compound 0.0949 µM): 79.9%
viability, T/C (second compound 1 µM, first compound 0.3 µM): 83%
viability, T/C (second compound 1 µM, first compound 0.949 µM): 38.9%
viability, T/C (second compound 1 µM, first compound 3 µM): 17.4%
viability, T/C (second compound 3.16 µM, first compound 0.00949 µM): 95.3%
viability, T/C (second compound 3.16 µM, first compound 0.03 µM): 90%
viability, T/C (second compound 3.16 µM, first compound 0.0949 µM): 80%
viability, T/C (second compound 3.16 µM, first compound 0.3 µM): 74.5%
viability, T/C (second compound 3.16 µM, first compound 0.949 µM): 34.1%
viability, T/C (second compound 3.16 µM, first compound 3 µM): 9.44%
viability, T/C (second compound 10 µM, first compound 0.00949 µM): 86.9%
viability, T/C (second compound 10 µM, first compound 0.03 µM): 95.7%
viability, T/C (second compound 10 µM, first compound 0.0949 µM): 70.9%
viability, T/C (second compound 10 µM, first compound 0.3 µM): 69.9%
viability, T/C (second compound 10 µM, first compound 0.949 µM): 23.8%
viability, T/C (second compound 10 µM, first compound 3 µM): 10.1%

Reference: PubChem BioAssay AID1918943 (Molecular Pharmacology Branch, DTP, NCI, 2023)
